# Experimental data from patent publication USRE37180E, “Photochemotherapeutical obstruction of newly-formed blood vessels” (Meiji Seika Kaisha, Ltd., priority 1995, dated 2001).
# Counter-ions that a name gives are not always drawn.
# How the values were obtained:
# [1] = acute toxicity tested by intravenous injection to CD-1 mice (male); details: mouse, in vivo
# [2] = photo-toxicity tests; type: in vivo
# [3] = system: choroidal vessels; type: in vivo, normal pigmented rabbits
# Description: The predetermined regions (that is, said spots) of the blood vessels to be irradiated with the laser beam had been marked preliminarily by photo-coagulation by means of an argon laser beam. Immediately after the irradiation with the laser at 664 nm, as well as one week after the irradiation and one month after the irradiation with the laser at 664 nm, the fundus of the eyes under test was examined by fluorescein angiography.
# The eye so treated was subsequently observed under light microscope at the end of 2 hours after the laser irradiation.
# The laser-irradiated parts of the eye so treated were subsequently observed under light microscope at the end of 1 hour after the laser irradiation.
# [4] = metabolic speed and level in the blood plasma; type: in vivo
# [5] = system: serum albumin; assay: affinity to the serum albumin; type: binding
# [6] = liposolubility / penetration into normal tissues; type: physicochemical
# [7] = system: in vivo cells; assay: transfer into the in vivo cells; details: not by diffusion
# [8] = light absorption; type: physicochemical; details: can absorb well
# [9] = system: active lesions of the neovascular tissues; assay: accumulation in neovascular tissues; details: in vivo
# [10] = design: species or system normal pigmented rabbits; details: rabbit, in vivo
# [11] = system: choroidal neovascularization; assay: occlusion of choroidal neovascularization upon irradiation with laser beam; type: in vivo; details: irradiation with a laser beam at 664 nm
# [12] = cited from earlier work
compound,measurement,setting,value
C=Cc1c(C)c2cc3nc(c(CC(=O)N[C@@H](CC(=O)O)C(=O)O)c4[nH]c(cc5nc(cc1[nH]2)C(C)=C5CC)c(C)c4C(=O)O)[C@@H](CCC(=O)O)[C@@H]3C [mono-L-aspartyl chlorin e6 tetra-sodium salt],LD50,[1],164 mg/kg
same,adverse side reactions such as erythema and edema,[2],does not involve adverse side reactions such as erythema and edema
same,"obstruction of choroidal blood vessels (choriocapillaris) maintained, light microscope","[3]; 25 mg/kg i.v., laser immediately after injection, 1 hour after irradiation","the choroidal blood vessels, more particularly the choriocapillaris continued to have been obstructed"
same,"endothelial cells of the chorio-capillaris / choriocapillaris, light microscope","[3]; 25 mg/kg i.v., laser immediately after injection, 2 hours after irradiation",endothelial cells of the chorio-capillaris had been swollen and necrotized and the choriocapillaris were obstructed
same,"extent of damages incurred in the choroidal vessels, laser one hour after versus immediately after injection","[3]; 25 mg/kg i.v., observed commonly for all the doses",the extent of damages incurred in the choroidal vessels is reduced at the laser irradiation as made one hour after the intravenous injection
same,degree of obstruction of choroidal vessels compared with argon laser photo-coagulation,"[3]; 25 mg/kg, laser immediately after administration, one week after irradiation, light microscope",the choroidal vessels were obstructed to a substantially same degree in the former case and the latter case
same,obstruction in the choroidal vessels,"[3]; 25, 50 and 100 mg/kg i.v., 664 nm laser immediately after injection, fluorescein angiography one week after irradiation",the obstruction took place in the choroidal vessels at all the doses
same,"degree of the obstruction in the choroidal vessels, dose dependence","[3]; 25, 50 and 100 mg/kg i.v., laser immediately after injection, one week after irradiation",the degree of the obstruction in the choroidal vessels increased with an increased doses
same,level in the blood plasma,[4]; at the end of 10 hours from the administration,1/500
same,metabolic speed relative to photofrin,[4]; faster than photofrin,at least 10 times
same,affinity to the serum albumin,[5],has a nature of exhibiting affinity to the serum albumin
same,liposolubility,[6],low liposolubility
same,penetration and diffusion into healthy normal tissues having the barrier in vivo,[6],hard to penetrate and diffuse into the healthy normal tissues having the barrier in vivo
same,mode of transfer into the in vivo cells,[7],by the phagocytosis and/or pinocytosis
same,light absorption wavelength,[8],664 nm
same,accumulation in the active lesions of the neovascular tissues,[9],can concentrate into and be accumulated well in the active lesions of the neovascular tissues
same,level in the blood after the administration,[10],can decrease quickly during an earlier period after the administration
same,metabolism after administration into a human or animal body,[10],can be metabolized well after its administration into a human or animal body
same,necrosis of the vascular endothelial cells and occlusion of choroidal neovascularization,[11],cause necrosis of the vascular endothelial cells and occlusion of choroidal neovascularization
same,uptake into and excretion from the human and animal body,[12],quickly uptaken into and excreted from the human and animal body
